Measured values as given in PubChem BioAssay AID248 (DTP/NCI, 2004).
Toxic doses and inconclusive results are not listed. No stated cut-off is given here; in the data, active means T/C of 150% or more; inactive means T/C below 125%.

Tested on: L1210 leukemia ip in BDF1 mice, survival T/C
Assay: NCI In Vivo Anticancer Drug Screen. Data for tumor model L1210 Leukemia (intraperitoneal) in B6D2F1 (BDF1) mice
Settings: endpoint: mean survival time, higher = longer survival
In short: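 Transplantable tumor model; survival measured in treated vs vehicle control mice. Value = treated/control.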

[1] = dose: 12.5 mg/kg/injection, schedule: Q04DX003 (ip), vehicle: Klucel (hydroxypropylcellulose) (HPC)
[2] = dose: 25.0 mg/kg/injection, schedule: Q04DX003 (ip), vehicle: Klucel (hydroxypropylcellulose) (HPC)
[3] = dose: 50.0 mg/kg/injection, schedule: Q04DX003 (ip), vehicle: Klucel (hydroxypropylcellulose) (HPC)
[4] = dose: 100.0 mg/kg/injection, schedule: Q01DX009 (ip), vehicle: saline with Tween-80
[5] = dose: 200.0 mg/kg/injection, schedule: Q01DX009 (ip), vehicle: saline with Tween-80
[6] = dose: 100.0 mg/kg/injection, schedule: Q01DX001 (ip), vehicle: Klucel (hydroxypropylcellulose) (HPC)
[7] = dose: 200.0 mg/kg/injection, schedule: Q01DX001 (ip), vehicle: Klucel (hydroxypropylcellulose) (HPC)
[8] = dose: 400.0 mg/kg/injection, schedule: Q01DX001 (ip), vehicle: Klucel (hydroxypropylcellulose) (HPC)
[9] = dose: 100.0 mg/kg/injection, schedule: Q01DX009 (ip), vehicle: Klucel (hydroxypropylcellulose) (HPC)
[10] = dose: 100.0 mg/kg/injection, schedule: Q04DX003 (ip), vehicle: Klucel (hydroxypropylcellulose) (HPC)
[11] = dose: 200.0 mg/kg/injection, schedule: Q01DX009 (ip), vehicle: Klucel (hydroxypropylcellulose) (HPC)
[12] = dose: 200.0 mg/kg/injection, schedule: Q04DX003 (ip), vehicle: Klucel (hydroxypropylcellulose) (HPC)
[13] = dose: 400.0 mg/kg/injection, schedule: Q01DX009 (ip), vehicle: Klucel (hydroxypropylcellulose) (HPC)
[14] = dose: 400.0 mg/kg/injection, schedule: Q04DX003 (ip), vehicle: Klucel (hydroxypropylcellulose) (HPC)

Measured: T/C

CN(C)C=NC1CCC(C(C)(C)C)CC1 (stereo unspecified)
inactive: dose: 12.5 mg/kg/injection, schedule: Q01DX009 (ip), vehicle: Klucel (hydroxypropylcellulose) (HPC) 96 % of control | [1] 103 % of control | dose: 25.0 mg/kg/injection, schedule: Q01DX009 (ip), vehicle: Klucel (hydroxypropylcellulose) (HPC) 102 % of control | [2] 95 % of control | [3] 93 % of control

NC(N)=NCCCC(N=Cc1ccccc1)C(=O)O (stereo unspecified)
inactive: dose: 100.0 mg/kg/injection, schedule: Q01DX009 (ip), vehicle: saline 97 % of control | dose: 200.0 mg/kg/injection, schedule: Q01DX009 (ip), vehicle: saline 101 % of control | dose: 400.0 mg/kg/injection, schedule: Q01DX009 (ip), vehicle: saline 98 % of control

O=C(c1ccccc1)C1CSSC1c1ccccc1 (stereo unspecified)
inactive: [1] 100 % of control | [2] 100 % of control | [3] 97 % of control

COc1ccc(OC)c2c1C=CCC=C2
inactive: dose: 50.0 mg/kg/injection, schedule: Q01DX009 (ip), vehicle: saline with Tween-80 95 % of control | [4] 88 % of control | dose: 100.0 mg/kg/injection, schedule: Q04DX003 (ip), vehicle: acetone 117 % of control | [5] 102 % of control | dose: 200.0 mg/kg/injection, schedule: Q04DX003 (ip), vehicle: acetone 94 % of control

Nc1cccc(Nc2cc(S(=O)(=O)O)c(N)c3c2C(=O)c2ccccc2C3=O)c1
inactive: dose: 5.0 mg/kg/injection, schedule: Q01DX001 (ip), vehicle: saline 100 % of control | dose: 10.0 mg/kg/injection, schedule: Q01DX001 (ip), vehicle: saline 94 % of control | dose: 20.0 mg/kg/injection, schedule: Q01DX001 (ip), vehicle: saline 100 % of control | dose: 40.0 mg/kg/injection, schedule: Q01DX001 (ip), vehicle: saline 100 % of control | dose: 80.0 mg/kg/injection, schedule: Q01DX001 (ip), vehicle: saline 103 % of control | dose: 100.0 mg/kg/injection, schedule: Q01DX001 (ip), vehicle: saline 93 % of control | dose: 200.0 mg/kg/injection, schedule: Q01DX001 (ip), vehicle: saline 100 % of control

CC1(C)OCC(C(OC(=O)c2ccc([N+](=O)[O-])cc2)C(OC(=O)c2ccc([N+](=O)[O-])cc2)C2COC(C)(C)O2)O1 (stereo unspecified)
inactive: [6] 103 % of control | [7] 100 % of control | [8] 100 % of control

Cc1cc(Cl)ccc1NC(=O)c1ccccc1
inactive: [9] 98 % of control | [10] 103 % of control | [11] 105 % of control | [12] 92 % of control | [13] 96 % of control | [14] 97 % of control

Oc1ccc(CCNCc2ccc3c(c2)OCO3)cc1
inactive: [6] 88 % of control | [7] 88 % of control | [8] 88 % of control

CCC(C(=O)NC(C)c1ccc(-c2ccccc2)cc1)c1ccccc1 (stereo unspecified)
inactive: [9] 87 % of control | [11] 92 % of control | [13] 86 % of control

CCOC(=O)NN(C)c1c(C)cccc1C
inactive: dose: 50.0 mg/kg/injection, schedule: Q01DX001 (ip), vehicle: Klucel (hydroxypropylcellulose) (HPC) 96 % of control | [6] 106 % of control | [7] 104 % of control

CNC(=O)Nc1ccc(Cl)cc1C
inactive: [9] 98 % of control | [10] 96 % of control | [11] 102 % of control | [12] 96 % of control | [14] 106 % of control

CCCC[n+]1ccccc1Cc1ccccc1
inactive: dose: 6.25 mg/kg/injection, schedule: Q04DX003 (ip), vehicle: saline 102 % of control | dose: 12.5 mg/kg/injection, schedule: Q04DX003 (ip), vehicle: saline 97 % of control

COC(=O)C(CSCSC)NC(=O)Nc1ccccc1C (stereo unspecified)
inactive: [4] 102 % of control | [5] 90 % of control | dose: 400.0 mg/kg/injection, schedule: Q01DX009 (ip), vehicle: saline with Tween-80 97 % of control
